Assay results taken from PubChem BioAssay AID328 (DTP/NCI, 2004).
Toxic doses and inconclusive results are not listed. How the source made its calls: active means survival T/C of 150% or more; inactive means T/C below 125% in these data. Non-standard residues stand in square brackets, D forms with d. Residues, ends and D or L forms follow the SMILES beside them. ξ: configuration not given here. Ac5c = NC1(C(=O)O)CCCC1; ξS = NC(CO)C(=O)O

System: BDF1 mice, P388 leukemia ip, median survival T/C
Test: NCI In Vivo Anticancer Drug Screen. Data for tumor model P388 Leukemia (intraperitoneal) in B6D2F1 (BDF1) mice
Details: endpoint: median survival time, higher = longer survival
Summary of the method: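 Each value expresses how treatment altered survival: treated-mouse outcome over vehicle-mouse outcome, both groups bearing the transplanted tumour.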

[1] = dose: 100.0 mg/kg/injection, schedule: Q04DX003 (ip), vehicle: saline with Tween-80
[2] = dose: 200.0 mg/kg/injection, schedule: Q04DX003 (ip), vehicle: saline with Tween-80
[3] = dose: 400.0 mg/kg/injection, schedule: Q04DX003 (ip), vehicle: saline with Tween-80

Measured: T/C

CC(C)(C)c1cc(Br)c(N)c(C(O)(C(F)(F)F)C(F)(F)F)c1
inactive: dose: 100.0 mg/kg/injection, schedule: Q01DX001 (ip), vehicle: saline with Tween-80 105 % of control | dose: 200.0 mg/kg/injection, schedule: Q01DX001 (ip), vehicle: saline with Tween-80 109 % of control | dose: 400.0 mg/kg/injection, schedule: Q01DX001 (ip), vehicle: saline with Tween-80 111 % of control

C=C(C)C(N)C(=O)O (stereo not given)
inactive: [1] 118 % of control | [2] 104 % of control | [3] 118 % of control

CCOc1ccc(-c2cc(C)n(C)[n+]2C)cc1
inactive: dose: 12.5 mg/kg/injection, schedule: Q01DX009 (ip), vehicle: saline with Tween-80 100 % of control | dose: 25.0 mg/kg/injection, schedule: Q01DX009 (ip), vehicle: saline with Tween-80 98 % of control | dose: 50.0 mg/kg/injection, schedule: Q01DX009 (ip), vehicle: saline with Tween-80 92 % of control

CN(C)C1=C(N2CC2)C(=O)C(N(C)C)=C(N2CC2)C1=O
active: dose: 0.5 mg/kg/injection, schedule: Q01DX009 (ip), vehicle: saline 151 % of control | dose: 1.0 mg/kg/injection, schedule: Q01DX009 (ip), vehicle: saline 174 % of control
inactive: dose: 0.25 mg/kg/injection, schedule: Q01DX009 (ip), vehicle: saline 87 % of control

CC1CN1P(=S)(N1CC1C)N1CC1C (stereo not given)
inactive: dose: 1.25 mg/kg/injection, schedule: Q01DX010 (ip), vehicle: saline 104 % of control | dose: 2.5 mg/kg/injection, schedule: Q01DX010 (ip), vehicle: saline 104 % of control | dose: 5.0 mg/kg/injection, schedule: Q01DX010 (ip), vehicle: saline 104 % of control | dose: 10.0 mg/kg/injection, schedule: Q01DX010 (ip), vehicle: saline 104 % of control

C[C@H]1CC2=CC(=O)CC[C@]2(C)[C@H]2CC[C@@]3(C)[C@@H](CC[C@]3(C)O)[C@H]12
inactive: dose: 100.0 mg/kg/injection, schedule: Q01DX009 (ip), vehicle: Klucel (hydroxypropylcellulose) (HPC) 100 % of control | dose: 100.0 mg/kg/injection, schedule: Q04DX003 (ip), vehicle: Klucel (hydroxypropylcellulose) (HPC) 100 % of control | dose: 200.0 mg/kg/injection, schedule: Q01DX009 (ip), vehicle: Klucel (hydroxypropylcellulose) (HPC) 105 % of control | dose: 200.0 mg/kg/injection, schedule: Q04DX003 (ip), vehicle: Klucel (hydroxypropylcellulose) (HPC) 95 % of control | dose: 400.0 mg/kg/injection, schedule: Q04DX003 (ip), vehicle: Klucel (hydroxypropylcellulose) (HPC) 100 % of control

[Cl][Hg][CH]1CCCC2OC(C(Cl)(Cl)Cl)OC21 (stereo not given)
inactive: dose: 0.2 mg/kg/injection, schedule: Q01DX001 (ip), vehicle: saline with Tween-80 111 % of control | dose: 0.4 mg/kg/injection, schedule: Q01DX001 (ip), vehicle: saline with Tween-80 109 % of control | dose: 0.78 mg/kg/injection, schedule: Q01DX001 (ip), vehicle: saline with Tween-80 101 % of control | dose: 0.8 mg/kg/injection, schedule: Q01DX001 (ip), vehicle: saline with Tween-80 109 % of control | dose: 1.6 mg/kg/injection, schedule: Q01DX001 (ip), vehicle: saline with Tween-80 116 % of control

NC(CO)C(=O)NC1(C(=O)O)CCCC1 (stereo not given) (H-[ξS]-[Ac5c]-OH)
inactive: dose: 100.0 mg/kg/injection, schedule: Q01DX009 (ip), vehicle: saline with Tween-80 109 % of control | dose: 200.0 mg/kg/injection, schedule: Q01DX009 (ip), vehicle: saline with Tween-80 118 % of control | dose: 400.0 mg/kg/injection, schedule: Q01DX009 (ip), vehicle: saline with Tween-80 95 % of control

COc1ccc2c(c1)C(C)(C)Oc1cc3oc(C(=O)O)cc(=O)c3cc1-2
inactive: [1] 104 % of control | [2] 101 % of control | [3] 104 % of control

CC12CCC(O)CC1CCC1C2CCC2(C)C(C3=CC(=O)OC3)CCC12O (stereo not given)
inactive: dose: 2.0 mg/kg/injection, schedule: Q01DX009 (ip), vehicle: Klucel (hydroxypropylcellulose) (HPC) 90 % of control | dose: 2.0 mg/kg/injection, schedule: Q01DX010 (ip), vehicle: carboxymethylcellulose (CMC) 95 % of control | dose: 4.0 mg/kg/injection, schedule: Q01DX009 (ip), vehicle: Klucel (hydroxypropylcellulose) (HPC) 105 % of control | dose: 8.0 mg/kg/injection, schedule: Q01DX009 (ip), vehicle: Klucel (hydroxypropylcellulose) (HPC) 112 % of control | dose: 8.0 mg/kg/injection, schedule: Q01DX010 (ip), vehicle: carboxymethylcellulose (CMC) 104 % of control

CCCC1CC[N-]CC1.CCCC1CC[N-]CC1.[Cl][Cu][Cl]
inactive: dose: 2.0 mg/kg/injection, schedule: Q01DX009 (ip), vehicle: saline 89 % of control | dose: 4.0 mg/kg/injection, schedule: Q01DX009 (ip), vehicle: saline 100 % of control | dose: 8.0 mg/kg/injection, schedule: Q01DX009 (ip), vehicle: saline 100 % of control

O=C(c1ccccc1)C1CCCCC1
inactive: dose: 12.0 mg/kg/injection, schedule: Q04DX003 (ip), vehicle: Klucel (hydroxypropylcellulose) (HPC) 104 % of control | dose: 25.0 mg/kg/injection, schedule: Q04DX003 (ip), vehicle: Klucel (hydroxypropylcellulose) (HPC) 109 % of control | dose: 50.0 mg/kg/injection, schedule: Q04DX003 (ip), vehicle: Klucel (hydroxypropylcellulose) (HPC) 100 % of control | dose: 200.0 mg/kg/injection, schedule: Q04DX003 (ip), vehicle: saline 107 % of control | dose: 400.0 mg/kg/injection, schedule: Q04DX003 (ip), vehicle: saline 107 % of control
